Measurements published in US4551472A, “Unsymmetrical bis-carbamate compounds” (priority 1984, dated 1985).
Converted amounts (≈) assume the structure as drawn.

Tests used:
[1] = system: bean aphid (Aphis fabae Scop.); assay: whole plant or invertebrate; settings: foliar, read-out: Biological Activity in LD50's: Aphid
Protocol: (§1) The thus-prepared stock suspension contained 0.5 percent by weight of compound. The test concentrations in parts per million by weight employed in the tests described hereinbelow were obtained by appropriate dilutions of the stock suspension with water. The test procedures were as follows:
Adults and nymphal stages of the bean aphid (Aphis fabae Scop.) reared on potted dwarf nasturtium plants at 65°-70° F. and 50-70 percent relative humidity, consistuted with test insects. For testing purposes, the number of aphids per pot was standardized to 100-150 by trimming plants containing excess aphids.
The potted plants (one pot per compound tested) infested with 100-150 aphids, were placed on a revolving turntable and sprayed with 100-110 milliliters of test compound formulation by use of a DeVilbiss spray gun set at 40 psig. air pressure. This application, which lasted 25 seconds, was sufficient to wet the plants to run-off. As a control, 100-110 milliliters of a water-acetone-emulsifier solution containing no test compound were also sprayed on infested plants. […] Temperature and humidity in the test room during the 24 hour holding period were 65°-70° F. and 50-70 percent, respectively. Aphids which fell onto the paper and were unable to remain standing after being uprighted were considered dead. Aphids remaining on the plants were observed closely for movement and those which were unable to move the length of the body upon stimulation by prodding were considered dead. Percent mortality was recorded for various concentration levels.
(§2) In these tests the pesticidal activity of the compounds at the indicated dosage rate against aphid, mite, Southern Armyworm (SA), Mexican Bean Beetle (MBB), and house fly was rated as follows:
(§3) Several of the unsymmetrical bis-carbamoyl sulfide compounds of this invention were tested against related known compounds.

[2] = system: two-spotted mite (Tetranychus urticae Koch); assay: whole plant or invertebrate; settings: foliar, read-out: Biological Activity in LD50's: Mite
Protocol: as §1
Adults and nymphal stage of the two-spotted mite (Tetranychus urticae Koch), reared on Tendergreen bean plants at a temperature of 80±5° F. and at a relative humidity of 50±5 percent, were the test organisms. Infested leaves from a stock culture were placed on the primary leaves of two bean plants six to eight inches in height, growing in a two-and-a-half inch clay pot. 150-200 Mites, a sufficient number for testing, transferred from the excised leaves to the fresh plants in a period of twenty-four hours. Following the twenty-four hour transfer period, the excised leaves were removed from the infested plants. […] The potted plants (one pot per compound) were placed on a revolving turntable and sprayed with 100-110 milliliters of test compound formulation by use of a DeVilbiss spray gun at 40 psig. air pressure. This application, which lasted 25 seconds, was sufficient to wet the plants to run-off. As a control, 100-110 milliliters of a water solution containing acetone and emulsifier in the same concentrations as the test compound formulation, but containing no test compound, were also sprayed on infested plants. The sprayed plants were held at a temperature of 80±5° F. and a 50±5 percent relative humidity for six days, after which a mortality count of motile forms was made. Microscopic examination for motile forms was made on the leaves of the test plants. Any individual which was capable of locomotion upon prodding was considered living.
as §2, §3

[3] = system: southern armyworm (Spodopera eridania, (Cram.)); assay: whole plant or invertebrate; settings: Spodoptera eridania, read-out: Biological Activity in LD50's: Southern Armyworm
Protocol: as §1
Larvae of the southern armyworm (Spodopera eridania, (Cram.)), reared on Tendergreen bean plants at a temperature of 80±5° F. and a relative humidity of 50±5 percent, constituted the test insects.
Potted Tendergreen bean plants of standard height and age were placed on a revolving turntable and sprayed with 100-110 milliliters of test compound formulation by use of a DeVilbiss spray gun set at 10 psig air pressure. This application, which lasted 25 seconds, was sufficient to wet plants to run-off. As a control, 100-110 milliliters of a water-acetone-emulsifier solution containing no test compound were also sprayed on infested plants. When dry, the paired leaves were separated and each one was placed in a 9 centimeter Petri dish lined with moistened filter paper. Five randomly selected larvae were introduced into each dish and the dishes were closed. The closed dishes were labeled and held at 80°-85° F. for three days. Although the larvae could easily consume the whole leaf within twenty-four hours, no more food was added. Larvae which were unable to move the length of the body, even upon stimulation by prodding, were considered dead. Percent mortality was recorded for various concentration levels.
as §2, §3

[4] = system: Mexican bean beetle (Epilachna varivestis, Muls.); assay: whole plant or invertebrate; settings: read-out: Biological Activity in LD50's: MBB
Protocol: as §1
Fourth instar larvae of the Mexican bean beetle (Epilachna varivestis, Muls.), reared on Tendergreen bean plants at a temperature of 80±5° F. and 50±5 percent relative humidity, were the test insects.
Potted Tendergreen bean plants of standard height and age were placed on a revolving turntable and sprayed with 100-110 milliliters of test compound formulation by use of a DeVilbiss strapy gun set at 10 psig air pressure. This application, which lasted 25 seconds, was sufficient to wet plants to run-off. As a control, 100-110 milliliters of a water-acetone-emulsifier solution containing no test compound were also strayed on infested plants. When dry, the paired leaves were separated and each was placed in a 9 centimeter Petri dish lined with moistened filter paper. Five randomly selected larvae were introduced into each dish, and the dishes were closed. The closed dishes were labeled and held at a temperature of 80±5° F. for three days. Although the larvae could easily consume the leaf within 24 to 48 hours, no more food was added. Larvae which were unable to move the length of the body, even upon stimulation, were considered dead.
as §2, §3

[5] = system: house flies (Musca domestica, L.); assay: whole plant or invertebrate; settings: read-out: Biological Activity in LD50's: Housefly
Excerpt: as §1
The flies were immobilized individuals, males and females, were transferred to a cage consisting of a standard food strainer about five inches in diameter which was inverted over a wrapping-paper-covered surface. […] Ten milliliters of the test formulation were added to a souffle cup containing a one-inch square of an absorbent cotton pad. This bait cup was introduced and centered on the blotting paper under the food strainer prior to admitting the anesthetized flies. The caged flies were allowed to feed on the bait for twenty-four hours, at a temperature of 80±5° F. and the relative humidity of 50±5 percent.
as §2, §3

[6] = system: root-knot nematode, Meloidogyne incognita var. acrita; assay: Nematocide Test; further: key: 1: severe galling, equal to untreated plants; 2: moderate galling; 3: light galling; 4: very light galling; 5: no galling, perfect control; type: in vivo; settings: 3.33 m.g. per jar; cucumber, approximately 3 weeks
Protocol: The test organism used was the infective migratory larvae of the root-knot nematode, Meloidogyne incognita var. acrita, reared in the greenhouse on roots of cucumber plants. Infected plants were removed from the culture, and the roots are chopped very finely. A small amount of this inoculum was added to a pint jar containing approximately 180 cc. of soil. The jars were capped and incubated for one week at room temperature. During this period eggs of the nematode were hatched, and the larval forms migrated into the soil.
Ten ml. of the test formulation were added to each of the two jars for each dosage tested. Following the addition of chemical, the jars were capped, and the contents thoroughly mixed on a ball mill for 5 minutes.
The test compounds were formulated by a standard procedure of solution in acetone addition of an emulsifier, and dilution with water. Primary screening tests were conducted at 3.33 m.g. of the test compound per jar.
The jars were left capped at room temperature for a period of 48 hours, and the contents then transferred to 3 inch pots. Subsequently, the pots were seeded to cucumber as an indicator crop and placed in the greenhouse where they were cared for in the normal fashion for approximately 3 weeks.
The cucumber plants were then taken from the pots, the soil removed from the roots; and the amount of galling visually rated.
In the test for activity against nematodes (nem) activity was rated as follows: […]

[7] = system: rat; assay: Mammalian Toxicity, peroral toxicity to rat; type: in vivo
Protocol: Certain compounds were also evaluated to determine their peroral toxicity to mammals by conventional methods. The representative animal selected for this experiment was the rat.

[8] = system: Soy; assay: Phytotoxicity Test, soy; settings: 2500 ppm spray, ten days
Protocol: (§4) Experiments were also conducted to determine the phytotoxicity of representative compounds with respect to healthy fresh plants. […] The test plants were sprayed in accordance with the procedure described above for the Mite Foliage Spray Test so as to deliver approximately 100 milliliters of test solution to the leaves of each plant tested. The sprayed plants and controls were set aside for approximately one hour to allow the foliage to dry and were then placed in the greenhouse. After ten days the plants were visually inspected to determine the extent of foliage injury. A rating of 1 indicates no perceptible injury; 5 indicates the plant was dead and ratings of 2, 3 and 4 indicate intermediate degrees of injury based upon the number and extent to which leaves were injured.

[9] = system: Bean; assay: Phytotoxicity Test, bean; settings: 2500 ppm spray, ten days
Protocol: as §4

[10] = system: Corn; assay: Phytotoxicity Test, corn; settings: 2500 ppm spray, ten days
Protocol: as §4

[11] = system: Tom; assay: Phytotoxicity Test, tomato; settings: 2500 ppm spray, ten days
Protocol: as §4

[12] = system: Cotton; assay: Phytotoxicity Test, cotton; settings: 2500 ppm spray, ten days
Protocol: as §4

For CNC(=O)Oc1ccc(C(C)(C)C)cc1, the LC50 [1] was > 500 µg/mL, the LC50 [2] was > 500 µg/mL and the LC50 [3] was > 500 µg/mL. For the same compound, the LC50 [4] was > 500 µg/mL and the LC50 [5] was > 500 µg/mL.
In the case of CN(SN(C)C(=O)Oc1ccc(C(C)(C)C)cc1)C(=O)Oc1ccc(C(C)(C)C)cc1, the LC50 [1] is reported as > 500 µg/mL, the LC50 [2] is reported as > 500 µg/mL and the LC50 [3] is reported as > 500 µg/mL. The LC50 [4] was > 500 µg/mL and the LC50 [5] was > 500 µg/mL.
With CC(C)c1cccc(OC(=O)N(C)SN(C)C(=O)Oc2cccc(C(C)C)c2)c1 the LC50 [1] was 70 µg/mL (≈ 168 µM), the LC50 [2] was > 500 µg/mL and the LC50 [3] was 62 µg/mL (≈ 149 µM). The LC50 [4] was 11 µg/mL (≈ 26.4 µM) and the LC50 [5] was 150 µg/mL (≈ 360 µM).
CN(SN(C)C(=O)Oc1cccc2ccccc12)C(=O)Oc1cccc2ccccc12 was tested, and the LC50 [1] was > 500 µg/mL, the LC50 [2] was > 500 µg/mL and the LC50 [3] was 80 µg/mL (≈ 185 µM). The LC50 [4] was 6 µg/mL (≈ 13.9 µM) and the LC50 [5] was > 500 µg/mL.
CNC(=O)ON=C1SC(C)(C)C(=O)N1C gave an LC50 [1] of 160 µg/mL (≈ 692 µM), an LC50 [2] of 280 µg/mL (≈ 1210 µM) and an LC50 [3] of 30 µg/mL (≈ 130 µM). The LC50 [4] was 6 µg/mL (≈ 25.9 µM) and the LC50 [5] was 25 µg/mL (≈ 108 µM).
With CSC(C)=NOC(=O)N(C)SN(C)C(=O)Oc1ccc(C(C)(C)C)cc1 [drawing 80] the LC50 [1] was 40 µg/mL (≈ 100 µM), the LC50 [2] was > 500 µg/mL and the LC50 [3] was 7 µg/mL (≈ 17.5 µM). It also gave an LC50 [4] of 9 µg/mL (≈ 22.5 µM) and an LC50 [5] of 35 µg/mL (≈ 87.6 µM).
For CSC(C)=NOC(=O)N(C)SN(C)C(=O)Oc1cccc(C(C)C)c1 [drawing 83], the LC50 [1] was 50 µg/mL (≈ 130 µM), the LC50 [2] was 500 µg/mL (≈ 1300 µM) and the LC50 [3] was 9 µg/mL (≈ 23.3 µM). For the same compound, the LC50 [4] was 9 µg/mL (≈ 23.3 µM) and the LC50 [5] was 15 µg/mL (≈ 38.9 µM).
CSC(C)=NOC(=O)N(C)SN(C)C(=O)Oc1cccc2ccccc12 [drawing 86] gave an LC50 [1] of 8 µg/mL (≈ 20.3 µM), an LC50 [2] of 500 µg/mL (≈ 1270 µM) and an LC50 [3] of 6 µg/mL (≈ 15.2 µM). It also gave an LC50 [4] of 3 µg/mL (≈ 7.62 µM) and an LC50 [5] of 24 µg/mL (≈ 61 µM).
CN(SN(C)C(=O)ON=C1SC(C)(C)C(=O)N1C)C(=O)ON=C1CSCCS1 [drawing 88] was tested, and the LC50 [1] was > 500 µg/mL, the LC50 [2] was 6 µg/mL (≈ 12.8 µM) and the LC50 [3] was 29 µg/mL (≈ 62 µM). It also gave an LC50 [4] of 22 µg/mL (≈ 47 µM) and an LC50 [5] of 2 µg/mL (≈ 4.28 µM).
For “N-[1-Methylthioacetaldehyde O-(N-methylcarbamoyl)oxime]N-[3-(and 4)-isopropylphenyl-(N-methylcarbamoyloxy)]sulfide [XVII]”, the “Biological Activity: Nem (nematode, galling rating)” value [6] was 4, the “A.O. Rat LD50” value [7] was 126.0 Mg/Kg and the “Phytotoxicity: Soy” value [8] was 1. The “Phytotoxicity: Bean” value [9] was 1, the “Phytotoxicity: Corn” value [10] was 1 and the “Phytotoxicity: Tom” value [11] was 1. The “Phytotoxicity: Cotton” value [12] was 1.
